Laboratory results reported in patent US8603967B2, “Carrier peptide fragment and use thereof” (Toagosei Co., Ltd., priority 2009, dated 2013).

Test system: Human neonate fibroblasts (ATCC cell line CCD-1079sk)
Experiment: Evaluation of cell membrane permeability function (fluorescence antibody technique, confocal microscopy)
Format: cell-based
Details: 3.5 μg/mL in liquid culture medium, cultured 2 hours, FIG. 2
Experimental: Human neonate fibroblasts (ATCC cell line CCD-1079sk) were used as the eukaryotic cells, and the cell membrane permeability capability of the 2 samples (constructs for transferring a foreign substance) obtained in Example 1 above was investigated.
More specifically, approximately 2×10^4 cells were cultured on a collagen-coated S-well slide overnight at 37° C. in 5% CO2 using a liquid culture medium (Eagle's MEM medium: comprising 0.1 mM NeAA, 1 mM sodium pyruvate, Earle's BSS (product of GIBCO) with 10% FBS (product of GIBCO).
The purified polypeptides obtained above were added to the cell culture (1.5 μg/mL of the polypeptide of Sample No. 1 and 3.5 μg/mL of the polypeptide of Sample No. 2), and culturing was continued for another 2 hours.
Then the supernatant was removed, the abovementioned D-PBS was added, and the cells were rinsed 3 times therewith on ice. Next, ice-cold methanol was added and the samples were let stand for 10 min at −20° C. to fix the cells. Then the methanol was removed, PBS solution containing 5% normal goat serum (product of MBL) was added, and blocking was carried out at room temperature for 1 hour. […]

Substance: Sample No. 2: Fusion polypeptide (SEQ ID NO: 7): Met, NoLS carrier KKRTLRKNDRKKR fused to N-terminal end of GFP, C-terminal polyhistidine tag
- location of the polypeptide transferred into the cells (nuclear translocation) (anti-GFP antibody staining merged with DAPI): transferred (translocated) to the nucleus and localized therein
- transfer of the polypeptide into the cells (anti-GFP antibody staining): transfer of the polypeptide into the cells can be seen
